The numbers were not newly measured in patent US20040115708A1, “Method of screening agents for the treatment and prevention of cancer and cachexia and the new use of specific agents for the treatment and prevention of cancer and cachexia” (priority 2002, published 2004), which cites them from elsewhere.

The subject of series [1] is 8-Hydroxy-deoxyguanosine (8-OH-dG) in lung DNA.
The subject of series [2] is cancer in NNK treated animals. Particulars: consumption of EGCG.

For the compound `CN(CCCC(=O)c1cccnc1)N=O` [NNK, 4-(methyInitrosamino)-1-(3-pyridyl)-1-butanone], in series [1] (mice treated with NNK), the “8-OH-dG (hydroxyl radical-caused DNA adduct) level” value is “elevated”.

Take (−)-epigallocatechin gallate: the “levels of 8-OH-dG in lung DNA” value in series [1] (consumption of EGCG, NNK treated animals) is recorded as “significantly lowers”. Besides, the incidence of cancer entry in series [2] was “decreases”.
